These results are taken from article PMC9311798, “A Novel Class of Potent Anti-Tyrosinase Compounds with Antioxidant Activity, 2-(Substituted phenyl)-5-(trifluoromethyl)benzo[d]thiazoles: In Vitro and In Silico Insights” (Antioxidants, 2022).

A short description of data set [1]: ABTS radical scavenging activity assay. To be noted: 100 µM, 2 min in the dark; for ABTS free radical scavenged (%): 734 nm. The method, then:
At 734 nm, optical densities of the solutions were measured using a microplate reader (VersaMax^TM, Molecular Devices, Sunnyvale, CA, USA). The ABTS radical scavenging capacities of the 16 2-arylbenzothiazole derivatives were compared with trolox. All experiments were performed independently in triplicate.

In data set [2] the target is T1, mushroom tyrosinase (Agaricus bisporus, UniProt C7FF04).
T1 construct: purchased Sigma-Aldrich
As to the kind of experiment: Mushroom tyrosinase inhibition assay. In kind it is biochemical. To be noted: L-tyrosine as substrate. On the procedure:
Mushroom tyrosinase inhibitory activity was determined as described previously, with minor modifications. L-Tyrosine was used as a substrate to determine enzyme activities. […] These dose-dependent inhibition experiments were carried out three times using three to five different concentrations of test compounds to determine IC50 values. Log–linear curves and their equations were derived from the observed percentages of inhibition.

The subject of data set [3] is intracellular ROS in B16F10 cells. As to the kind of experiment: Intracellular ROS scavenging (DCFH-DA assay, SIN-1 induced). To be noted: 20 µM, SIN-1 10 µM, trolox 20 µM positive control. Format: cell-based, murine. On the procedure:
Intracellular ROS scavenging evaluation was performed as reported by Ali et al. and Lebel and Bondy. ROS generation was assessed using the ROS-sensitive fluorescence indicator DCFH-DA. Briefly, B16F10 cells were seeded in 96-well black plates (1 × 10^4 cell/well), incubated for 24 h, treated with compounds 1a–1p (20 µM in DMSO) for 2 h, stimulated with 10 µL of SIN-1 (100 µM in 50 mM sodium phosphate buffer, pH 7.4) for 1 h to induce ROS production, and then incubated with DCFH-DA (20 µM) for 30 min at 37 °C. Fluorescence was measured for 30 min at 5 min intervals at an excitation wavelength of 485 nm and emission wavelength of 535 nm, using a Berthold microplate reader (Berthold Technologies GmbH &Co., Wien, Austria).

Data set [4] can be described thus: DPPH radical scavenging activity assay. To be noted: compound 1.0 mM, 30 min in the dark, 517 nm. The method, then:
The DPPH (2,2-diphenyl-1-picrylhydrazyl) scavenging activities of synthesized compounds 1a–1p were investigated as previously described, with minor modifications. A dimethyl sulfoxide solution (20 µL) containing 10 mM of each compound was mixed with DPPH methanol solution (0.2 mM, 180 µL) in the wells of a 96-well plate, and placed in the dark for 30 min at room temperature. At 517 nm, optical densities were measured using a microplate reader (VersaMax^TM, Molecular Devices, Sunnyvale, CA, USA). The DPPH radical scavenging ability of the 2-arylbenzothiazole derivatives was compared with that of L-ascorbic acid, the positive control. All experiments were performed independently in triplicate.
Background: The DPPH test is a chemical assay of radical scavenging.

T1 sequence (C7FF04 1-392 limits assumed): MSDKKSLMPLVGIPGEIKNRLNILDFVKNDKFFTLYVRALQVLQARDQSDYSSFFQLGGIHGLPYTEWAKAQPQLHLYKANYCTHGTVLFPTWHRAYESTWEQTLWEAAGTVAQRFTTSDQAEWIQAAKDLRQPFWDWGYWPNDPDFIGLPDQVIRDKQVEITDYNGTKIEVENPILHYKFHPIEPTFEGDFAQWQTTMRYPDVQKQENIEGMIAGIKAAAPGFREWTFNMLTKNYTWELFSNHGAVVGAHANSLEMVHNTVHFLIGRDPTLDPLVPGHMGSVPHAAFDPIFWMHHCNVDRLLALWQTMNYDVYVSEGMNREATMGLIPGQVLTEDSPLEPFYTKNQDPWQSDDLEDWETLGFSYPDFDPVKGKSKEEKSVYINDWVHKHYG

For the compound `Cc1c(C)c2c(c(C)c1O)CCC(C)(C(=O)O)O2` (stereo not drawn) [trolox, 6-hydroxy-2,5,7,8-tetramethylchroman-2-carboxylic acid, reference compound], the “ABTS free radical scavenged (%)” value in data set [1] was determined as 98.9%.

For `Oc1cc(O)cc(-c2nc3cc(C(F)(F)F)ccc3s2)c1` [Compound 1n, 5-(5-(Trifluoromethyl)benzo[d]thiazol-2-yl)benzene-1,3-diol], the melting point fell in the range of 256.7 to 260.6 °C. In addition, the IC50 in data set [2] was determined as 217 ± 32.7 µM. Moreover, in data set [3], the “intracellular ROS scavenging” value is “scavenged intracellular ROS to a similar extent to trolox”. Besides, the “ABTS radical scavenging activity (in words)” value in data set [1] was “potently scavenged the ABTS radical”. In addition, in data set [4], the “DPPH radical scavenging activity” value is “moderate DPPH radical scavenging efficacy”.

`COc1ccc(-c2nc3cc(C(F)(F)F)ccc3s2)cc1` [Compound 1h, 2-(4-Methoxyphenyl)-5-(trifluoromethyl)benzo[d]thiazole]: the melting point was 128.8 to 130.1 °C. In addition, in data set [2], the IC50 was greater than 300 µM.

`Oc1c(Br)cc(-c2nc3cc(C(F)(F)F)ccc3s2)cc1Br` [Compound 1o, 2,6-Dibromo-4-(5-(trifluoromethyl)benzo[d]thiazol-2-yl)phenol]: the half-maximal inhibitory concentration (IC50) in data set [2] is greater than 300 µM.

Consider `CCOc1cc(-c2nc3cc(C(F)(F)F)ccc3s2)ccc1O` [Compound 1e, 2-Ethoxy-4-(5-(trifluoromethyl)benzo[d]thiazol-2-yl)phenol], for which the melting point lay within 117 to 117.8 °C. The same compound registered an IC50 in data set [2] greater than 300 µM.

In turn, `Oc1ccc(-c2nc3cc(C(F)(F)F)ccc3s2)cc1O` [Compound 1c, 4-(5-(Trifluoromethyl)benzo[d]thiazol-2-yl)benzene-1,2-diol] registered a melting point of 267.3 to 269.4 °C. The half-maximal inhibitory concentration (IC50) in data set [2] is greater than 300 µM. The “intracellular ROS scavenging” value in data set [3] is recorded as “scavenged intracellular ROS far more potently than trolox”. In data set [1], the “ABTS radical scavenging activity (in words)” value is “potently scavenged the ABTS radical” and the “ABTS free radical scavenged (%)” value amounted to 92.4%. Moreover, the “DPPH radical scavenging activity” value in data set [4] is given as “greatest DPPH radical scavenging activity (comparable to L-ascorbic acid)”.

For `COc1cc(-c2nc3cc(C(F)(F)F)ccc3s2)cc(OC)c1O` [Compound 1l, 2,6-Dimethoxy-4-(5-(trifluoromethyl)benzo[d]thiazol-2-yl)phenol], the melting point fell in the range of 220.6 to 222.6 °C. The compound further showed a concentration for half-maximal inhibition (IC50) in data set [2] greater than 300 µM. In addition, the “DPPH radical scavenging activity” value in data set [4] was “moderate DPPH radical scavenging efficacy”.

As for `COc1ccc(-c2nc3cc(C(F)(F)F)ccc3s2)cc1O` [Compound 1f, 2-Methoxy-5-(5-(trifluoromethyl)benzo[d]thiazol-2-yl)phenol], the melting point was 142.1 to 144.5 °C. Besides, in data set [2], the 50% inhibitory concentration (IC50) is greater than 300 µM. Moreover, the “DPPH radical scavenging activity” value in data set [4] is listed as “moderate DPPH radical scavenging efficacy”.

The compound `Cc1cc(-c2nc3cc(C(F)(F)F)ccc3s2)cc(C)c1O` [Compound 1m, 2,6-Dimethyl-4-(5-(trifluoromethyl)benzo[d]thiazol-2-yl)phenol] returned a half-inhibitory concentration (IC50) in data set [2] of 129 ± 19.8 µM. Also, the “DPPH radical scavenging activity” value in data set [4] was “moderate DPPH radical scavenging efficacy”.

As to `COc1ccc(-c2nc3cc(C(F)(F)F)ccc3s2)c(OC)c1` [Compound 1i, 2-(2,4-Dimethoxyphenyl)-5-(trifluoromethyl)benzo[d]thiazole], the melting point lay within 140.4 to 141.6 °C. Moreover, the IC50 in data set [2] is greater than 300 µM.

As for `Oc1ccc(-c2nc3cc(C(F)(F)F)ccc3s2)cc1Br` [Compound 1p, 2-Bromo-4-(5-(trifluoromethyl)benzo[d]thiazol-2-yl)phenol], the IC50 in data set [2] came to 102 ± 12.4 µM. Further, the “intracellular ROS scavenging” value in data set [3] is “scavenged intracellular ROS to a similar extent to trolox”.

In the case of `COc1cc(-c2nc3cc(C(F)(F)F)ccc3s2)ccc1O` [Compound 1d, 2-Methoxy-4-(5-(trifluoromethyl)benzo[d]thiazol-2-yl)phenol], the melting point was 155.7 to 159.9 °C. This compound also gave an IC50 in data set [2] of 291 ± 63.8 µM. For the same compound, in data set [4], the “DPPH radical scavenging activity” value is given as “moderate DPPH radical scavenging efficacy”.

With `COc1ccc(-c2nc3cc(C(F)(F)F)ccc3s2)cc1OC` [Compound 1j, 2-(3,4-Dimethoxyphenyl)-5-(trifluoromethyl)benzo[d]thiazole], the melting point fell in the range of 120.4 to 121.6 °C. Further, the IC50 in data set [2] came out at 264 ± 56.6 µM.

`COc1cc(-c2nc3cc(C(F)(F)F)ccc3s2)cc(OC)c1OC` [Compound 1k, 5-(Trifluoromethyl)-2-(3,4,5-trimethoxyphenyl)benzo[d]thiazole] displayed a melting point of 132.5 to 134 °C. The compound also returned an IC50 in data set [2] greater than 300 µM.

On to `Oc1ccccc1-c1nc2cc(C(F)(F)F)ccc2s1` [Compound 1g, 2-(5-(Trifluoromethyl)benzo[d]thiazol-2-yl)phenol], for which the melting point lay in the range of 175 to 176.5 °C. The IC50 in data set [2] is greater than 300 µM. Also, the “intracellular ROS scavenging” value in data set [3] is recorded as “scavenged intracellular ROS to a similar extent to trolox”.

What is called IC50 is the concentration that inhibits the measured activity by half. Low values mean greater potency in that assay, high ones weaker potency in that assay. One may read the melting point as the temperature, or range, at which the solid turns liquid.
